B1: Wnt5a: wingless-type MMTV integration site family, member 15a (as printed); growth factor, 20 ng/ml, R&D (protein, UniProt P41221 62-380, looked up)
Protein Wnt-5a: IIGAQPLCSQLAGLSQGQKKLCHLYQDHMQYIGEGAKTGIKECQYQFRHRRWNCSTVDNTSVFGRVMQIGSRETAFTYAVSAAGVVNAMSRACREGELSTCGCSRAARPKDLPRDWLWGGCGDNIDYGYRFAKEFVDARERERIHAKGSYESARILMNLHNNEAGRRTVYNLADVACKCHGVSGSCSLKTCWLQLADFRKVGDALKEKYDSAAAMRLNSRGKLVQVNSRFNSPTTQDLVYIDPSPDYCVRNESTGSLGTQGRLCNKTSEGMDGCELMCCGRGYDQFKTVQTERCHCKFHWCCYVKCKKCTEIVDQFVCK
B2: Wnt1: wingless-type MMTV integration site family, member 1; growth factor, 20 ng/ml, R&D (protein, UniProt P04628 28-370, looked up)
Proto-oncogene Wnt-1: ANSSGRWWGIVNVASSTNLLTDSKSLQLVLEPSLQLLSRKQRRLIRQNPGILHSVSGGLQSAVRECKWQFRNRRWNCPTAPGPHLFGKIVNRGCRETAFIFAITSAGVTHSVARSCSEGSIESCTCDYRRRGPGGPDWHWGGCSDNIDFGRLFGREFVDSGEKGRDLRFLMNLHNNEAGRTTVFSEMRQECKCHGMSGSCTVRTCWMRLPTLRAVGDVLRDRFDGASRVLYGNRGSNRASRAELLRLEPEDPAHKPPSPHDLVYFEKSPNFCTYSGRLGTAGTAGRACNSSSPALDGCELLCCGRGHRTRTQRVTERCNCTFHWCCHVSCRNCTHTRVLHECL

Legend:
Human neural stem cells [1] = assay: Proliferation of neural stem cells treated with various bioactive molecules (alternating growth conditions, cell counting); type: cell-based; settings: second 8 weeks of 16; factor + 1% FBS alternating weekly with EGF, bFGF, LIF, no FBS
Protocol: hNSC's were alternately cultured in media containing a certain growth factor and serum (GF+FBS) or in the media containing EFL but lacking the presence of fetal bovine serum (EFL−FBS) as shown in FIG. 3. The media was changed on days 7 and 14 after plating the cells. This example utilized an initial incubation in EFL−FBS, followed by incubation in media including FBS. Experimental analysis of hNSCs was carried out on days 5, 10, 15, and 20, if not otherwise indicated.
Medium 2 (+GFs): DMEM/F12 (1:1), 2% B27 (Gibco), 1% Pen-Strep (PAA), 1% FBS (Gibco)+one of the combination of growth factors (CNTF, Jagged, SHH, TGFa, Wnt1, Wnt5A, or all)
7 different combinations of growth factors were used: 2.1. CNTF (20 ng/ml, Peprotech); 2.2. Jagged (20 ng/ml, Peprotech); 2.3. SHH (20 ng/ml, Peprotech); 2.4. TGFa (20 ng/ml, Peprotech); 2.5 Wnt1 (20 ng/ml, R&D); 2.6 Wnt5A (20 ng/ml, R&D); and 2.7 all above.
On days 5, 10, 15, and 20, if not otherwise indicated, neurospheres were dissociated using trypsin and single cells were counted using a hemocytometer. As a control, hNSCs were continuously grown in the absence of serum, but in the presence of growth factors EFL (control). The color code indicates the specific growth factor (GF) that was used in the GF+FBS mode. Abbreviations used: GF, growth factor; CNTF, ciliary neurotrophic factor; Jagged, SHH, sonic hedgehog; TGFα, transforming growth factor alpha; Wnt1, wingless-type MMTV integration site family, member 1; Wnt5A wingless-type MMTV integration site family, […]; or combined (CNTF, Jagged, SHH, TGFα, Wnt1, Wnt5A), E, EGF; F, bFGF; L, LIF.
Human neural stem cells are most routinely grown in medium supplemented with EGF and bFGF (and LIF). […] Cells were grown for 16 weeks and counted regularly every two weeks. […] Cells were counted 8 times. […] At the last time point analyzed, 5 times more cells were grown with control medium than under any other conditions.

Human neural stem cells [2] = assay: Differentiation of neural stem cells to neurons and astrocytes (bTubIII immunostaining on laminin); type: cell-based; settings: cells taken after 8 and 12 weeks in culture, 14 days on laminin without factors; 3 random fields counted
Protocol: Next, how the stimulation of signaling pathways affects the commitment of human neural stem cells to neuronal and glial lineages was examined. For differentiation, samples of cells grown in all 8 conditions were removed from proliferating cell populations (after 8 and 12 weeks in culture) and plated onto laminin coated coverslips. All additional factors were excluded from culture medium and cells were grown for 14 days. Next, cells were fixed and stained for neural and glial markers as described previously. Examples of immunocytochemistry analysis can be seen on FIG. 8. […] No cells were detected as positive for oligodendrocyte marker O4. After immunostaining, cells from 3 random fields were counted and their differentiation potential was estimated according to the number of bTubIII positive cells present in samples. Results can be seen on FIG. 9. […] Cells grown with Wnt5a had the least percentage of bTubIII positive cells (33%), all the other conditions gave 41 to 47% of bTubIII positive cells (in control 45%).

| Molecule | support of cell growth (Human neural stem cells [1]) | percentage of bTubIII positive cells (Human neural stem cells [2]) [%] |
| --- | --- | --- |
| Jagged-1: Jagged growth factor, 20 ng/ml, Peprotech | slightly more efficient than the others | – |
| TGFa: transforming growth factor alpha, 20 ng/ml, Peprotech | slightly more efficient than the others | – |
| B1 | – | 33 |
| B2 | slightly more efficient than the others | – |

Reference: patent US20110201113A1, “Ex Vivo Progenitor and Stem Cell Expansion and Differentiation for Use in the Treatment of Disease of the Nervous System” (priority 2010, published 2011)
